Series [1] is described as follows: in vitro. Particulars: human.
In series [2] the test system is A/PuertoRico/8/1934 (H1N1) virus. Put plainly: microbe, parasite or virus in culture. The format is cell-based, influenza A virus.
Series [3] is described as follows: in vitro. The conditions noted are these: human, Relative Viability (%).
The test system of series [4] is A/PuertoRico/8/1934 (H1N1) virus. The experiment in a line: microbe, parasite or virus in culture. Particulars: Influenza A virus, H1N1, U-937, 48 h. The format is cell-based, influenza A virus.
The test system of series [5] is A/Human/Hubei/3/2005 (H3N2). Put plainly: microbe, parasite or virus in culture. The format is cell-based. The conditions noted are these: Influenza A virus, H3N2, A549, 48 h, read-out: H3N2 IC50.
In series [6] the test system is B/Human/Hubei/1/2007 (IBV). The experiment in a line: microbe, parasite or virus in culture. It counts as cell-based. The conditions noted are these: Influenza B virus, MDCK, 48 h, read-out: IBV IC50.
The nature of series [7]: in vitro. The conditions noted are these: human. The source holds these as a separate data set.
Series [8] is described as follows: in vitro. Particulars: dog.
The nature of series [9]: Validation screen: cytotoxicity without viral infection. Particulars: human.
In series [10] the test system is single-stranded RNA (ssRNA) viruses. The conditions noted are these: cited from earlier work.
Series [11] concerns striatal neurons. More on the design: method as in Iwatsubo et al., 2007. The conditions noted are these: young and neonatal neurons; ref Iwatsubo et al., 2007; cited from earlier work.
The subject of series [12] is primary tumor. More on the design: method as in Sakakitani et al., 2020. The conditions noted are these: xenograft model; ref Sakakitani et al., 2020; cited from earlier work.
The test system of series [13] is oral cancer cells. More on the design: method as in Sakakitani et al., 2020. The conditions noted are these: ref Sakakitani et al., 2020; cited from earlier work.
Series [14] can be described thus: in vitro. Particulars: human. The source holds these as a separate data set.
A short description of series [15]: in vitro. Particulars: human. This is another data set of the same source.
The test system of series [16] is Bovine Liver Catalase (BLC). More on the design: method as in Shahraki et al., 2020. Particulars: ref Shahraki et al., 2020; cited from earlier work.
Setting [17] is: Influenza A virus, H1N1, U-937, 48 h, read-out: NA Inhibition (%).
The mark [18] stands for this setting: Influenza A virus, H1N1, U-937, 48 h; read-out: NA Inhibition (%).

Structures can show the parent of a compound that is named as a salt. Where two headings read alike, the source gives them in different places.

Results on eight molecules are retold here after PMC12069340 (Frontiers in Cellular and Infection Microbiology, 2025).

Broadly, the inhibition is the drop in the measured response relative to a control, in per cent. The viability is a read-out of living cells in per cent, often relative to untreated cells. A word on the IC50: it is the midpoint of a concentration-inhibition curve.

In the case of `Cc1ccc(OCC(O)C(C)NC(C)C)c2c1CCC2` (stereo not shown) [ICI-118551], in series [1], the CC50 at 48 h was over 80 µM. In addition, the inhibition at 20 µM in series [2] (setting [17]) is 60.7%. The viability at 20 µM in series [3] amounted to 106%. Moreover, the concentration for half-maximal inhibition (IC50) in series [4] was determined as 5.8 µM.
For `CCCN(CCc1cccs1)[C@H]1CCc2c(O)cccc2C1` [Rotigotine], in [2] (setting [18]), the inhibition at 20 µM came to 89.1%. The figures for the IC50 in series [5], in [6] and in [4] were 21.9 µM, 7.3 µM and 1.26 µM, respectively. Further, the viability at 20 µM in series [3] is 147%. The molecule further had a CC50 in [7] of 372 µM. Also, in series [8], the CC50 at 48 h is 93 µM.
Turning to `CN1CCN(CCCN2c3ccccc3Sc3ccc(Cl)cc32)CC1` [Prochlorperazine dimaleate, Prochlorperazine dimaleate salt], the inhibition at 20 µM in series [2] (setting [17]) stood at 63.9%. For the same molecule, in [9] (uninfected U937 cells), the CC50 at 48 h was 38.4 µM. In addition, the viability at 20 µM in [3] amounted to 93.5%. Besides, in series [10], the “antiviral properties, virus entry” value is given as “exhibits antiviral properties by disrupting clathrin redistribution”.
Take `NCCc1ccc(O)c(O)c1` [Dopamine HCl]: the inhibition at 20 µM in series [2] (setting [17]) is -7.6%. Moreover, the apoptosis result in series [11] is listed as “can induce apoptosis in young striatal neurons through D1-like receptors, but not in neonatal neurons”.
As to `CC(COc1ccccc1)NC(C)C(O)c1ccc(O)cc1` (stereo not shown) [Isoxsuprine, Isoxsuprine hydrochloride], the inhibition at 20 µM in [2] (setting [17]) worked out at 86.5%. Moreover, the IC50 in [5] is 34.3 µM; in series [6], 3.4 µM; in series [4], 1.5 µM. Also, the CC50 at 48 h in series [9] is over 80 µM; in [14], over 900 µM; in [8], over 400 µM. The primary tumor growth result in series [12] is listed as “effectively suppressed primary tumor growth”. In addition, the “mesenchymal cell markers and motility” value in series [13] is “downregulates mesenchymal cell markers and reduces motility”. In [3], the viability at 20 µM worked out at 105%. Besides, the CC50 in series [7] (A549 cells) was 530 µM; in series [15], over 900 µM. Also, in [16], the catalase activity entry is given as “reduce catalase activity”.
Turning to `O=C(C[S+]([O-])Cc1ccco1)NC/C=C\COc1cc(CN2CCCCC2)ccn1` (stereo not shown) [Lafutidine], in series [1], the CC50 at 48 h was over 80 µM. Besides, in [2] (setting [18]), the inhibition at 20 µM is 52%. Further, the viability at 20 µM in [3] was found to be 109%. The molecule further gave a half-maximal inhibitory concentration (IC50) in [4] of 14.8 µM.
Take `CC(C)NCC(O)c1ccc(O)c(O)c1` (stereo not shown) [Isoprenaline HCl]: the inhibition at 20 µM in series [2] (setting [18]) was -12.4%. In [11], the apoptosis entry was “did not promote apoptosis in either group”.
Consider `O=C(c1ccc(OCCCc2cnc[nH]2)cc1)C1CC1` [Ciproxifan], for which the inhibition at 20 µM in series [2] (setting [18]) was 75.2%. The half-inhibitory concentration (IC50) worked out at 14.9 µM in [5], 1.8 µM in [6] and 1.4 µM in series [4]. The figures for the CC50 at 48 h in series [9], in series [14] and in series [8] were over 80 µM, 556 µM and over 400 µM, respectively. The viability at 20 µM in series [3] was determined as 131%. The results for the CC50 in series [7] (A549 cells) and in series [15] were 556 µM and 425 µM, respectively.
